Assay results taken from ChEMBL document CHEMBL1132553, “Design, synthesis, and biological evaluation of matrix metalloproteinase inhibitors derived from a modified proline scaffold” (J Med Chem, 1999).

Key:
Interstitial collagenase = molecular target: T1, Interstitial collagenase (Homo sapiens, UniProt P03956); assay: In vitro inhibition of human recombinant collagenase-1 (Matrix metalloprotease-1, MMP-1)
T1 sequence (P03956 whole entry): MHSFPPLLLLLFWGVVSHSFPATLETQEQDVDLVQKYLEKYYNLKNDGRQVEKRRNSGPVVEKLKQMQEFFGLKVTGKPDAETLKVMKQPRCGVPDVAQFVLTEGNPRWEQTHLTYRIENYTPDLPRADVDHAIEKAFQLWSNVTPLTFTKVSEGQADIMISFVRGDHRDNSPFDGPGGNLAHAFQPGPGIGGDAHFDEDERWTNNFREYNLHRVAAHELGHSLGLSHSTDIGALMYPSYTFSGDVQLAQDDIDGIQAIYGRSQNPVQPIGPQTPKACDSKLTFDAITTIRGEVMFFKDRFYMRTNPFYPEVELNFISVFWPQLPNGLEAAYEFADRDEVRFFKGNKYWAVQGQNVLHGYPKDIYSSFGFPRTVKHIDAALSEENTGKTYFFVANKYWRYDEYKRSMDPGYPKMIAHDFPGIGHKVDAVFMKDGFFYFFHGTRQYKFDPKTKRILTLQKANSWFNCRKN

Matrilysin = molecular target: T2, Matrilysin (Homo sapiens, UniProt P09237); assay: In vitro inhibition of matrilysin (Matrix metalloprotease-7, MMP-7)
T2 sequence (P09237 whole entry): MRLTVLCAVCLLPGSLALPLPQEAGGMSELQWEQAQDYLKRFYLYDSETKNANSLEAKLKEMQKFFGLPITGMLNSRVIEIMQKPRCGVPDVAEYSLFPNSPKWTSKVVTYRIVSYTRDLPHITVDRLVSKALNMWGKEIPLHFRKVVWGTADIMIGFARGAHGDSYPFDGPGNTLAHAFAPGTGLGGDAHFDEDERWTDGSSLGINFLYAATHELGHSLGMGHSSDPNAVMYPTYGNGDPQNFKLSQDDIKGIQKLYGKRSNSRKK

[1] = molecular target: 72 kDa type IV collagenase (Homo sapiens, UniProt P08253)
Description: In vitro inhibitory activity against gelatinase-A (matrix metalloprotease-2).

Collagenase 3 = Collagenase 3 (Homo sapiens, UniProt P45452); assay: In vitro inhibition of human recombinant collagenase-3 (Matrix metalloprotease-13)
Rattus norvegicus [2] = organism: Rattus norvegicus; assay: In vitro percent permeability into rat ileum; Range is 28-36; assay type: ADME; settings: in vivo
Stromelysin-1 = Stromelysin-1 (Homo sapiens, UniProt P08254); assay: In vitro inhibition activity of human recombinant stromelysin (Matrix metalloprotease-3)
Rattus norvegicus [3] = organism: Rattus norvegicus; assay: In vitro percent permeability into rat ileum; nd indicates not detected; assay type: ADME; settings: in vivo
Rattus norvegicus [4] = organism: Rattus norvegicus; assay: In vitro percent permeability into rat ileum; Range is 2-5; assay type: ADME; settings: in vivo
Rattus norvegicus [5] = organism: Rattus norvegicus; assay: In vitro percent permeability into rat ileum; Range is 15-18; assay type: ADME; settings: in vivo
Rattus norvegicus [6] = organism: Rattus norvegicus; assay: In vitro percent permeability into rat ileum; assay type: ADME; settings: in vivo
Rattus norvegicus [7] = organism: Rattus norvegicus; assay: In vitro percent permeability into rat ileum; Range is 50-68; assay type: ADME; settings: in vivo
Rattus norvegicus [8] = organism: Rattus norvegicus; assay: In vitro percent permeability into rat ileum; Range is 29-35; assay type: ADME; settings: in vivo
Rattus norvegicus [9] = organism: Rattus norvegicus; assay: In vitro percent permeability into rat ileum; nt indicates not detected; assay type: ADME; settings: in vivo
Rattus norvegicus [10] = organism: Rattus norvegicus; assay: In vitro percent permeability into rat ileum; Range is 10-19; assay type: ADME; settings: in vivo
Rattus norvegicus [11] = organism: Rattus norvegicus; assay: In vitro percent permeability into rat ileum; Range is 46-66; assay type: ADME; settings: in vivo
Rattus norvegicus [12] = organism: Rattus norvegicus; assay: In vitro percent permeability into rat ileum; Range is 12-15; assay type: ADME; settings: in vivo
Rattus norvegicus [13] = organism: Rattus norvegicus; assay: In vitro percent permeability into rat ileum; Range is 13-19; assay type: ADME; settings: in vivo
Rattus norvegicus [14] = organism: Rattus norvegicus; assay: In vitro percent permeability into rat ileum; insol indicates not soluble in aqueous buffer; assay type: ADME
[15] = In vitro percent permeability into rat ileum; Range is 23-42; assay type: ADME, tissue-based
Rattus norvegicus [16] = organism: Rattus norvegicus; assay: In vitro percent permeability into rat ileum; Range is 78-81; assay type: ADME; settings: in vivo
Rattus norvegicus [17] = organism: Rattus norvegicus; assay: In vitro percent permeability into rat ileum; Range is 14-17; assay type: ADME; settings: in vivo
Rattus norvegicus [18] = organism: Rattus norvegicus; assay: In vitro percent permeability into rat ileum; Range is 10-17; assay type: ADME; settings: in vivo

Stromelysin-1, sequence (P08254 whole entry): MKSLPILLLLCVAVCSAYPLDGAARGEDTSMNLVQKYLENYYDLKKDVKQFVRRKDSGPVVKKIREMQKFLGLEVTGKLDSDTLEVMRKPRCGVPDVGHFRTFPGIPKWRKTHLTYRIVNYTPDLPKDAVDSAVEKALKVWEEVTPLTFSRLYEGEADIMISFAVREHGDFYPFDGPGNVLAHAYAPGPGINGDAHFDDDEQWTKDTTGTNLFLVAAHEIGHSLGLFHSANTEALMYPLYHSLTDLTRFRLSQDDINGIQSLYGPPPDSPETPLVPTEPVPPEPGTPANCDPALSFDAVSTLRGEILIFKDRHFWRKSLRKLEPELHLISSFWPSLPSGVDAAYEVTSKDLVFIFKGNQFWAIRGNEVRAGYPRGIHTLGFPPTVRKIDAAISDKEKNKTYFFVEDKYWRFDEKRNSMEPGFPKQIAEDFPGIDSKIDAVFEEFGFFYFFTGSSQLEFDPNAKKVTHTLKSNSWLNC
72 kDa type IV collagenase, sequence (P08253 whole entry): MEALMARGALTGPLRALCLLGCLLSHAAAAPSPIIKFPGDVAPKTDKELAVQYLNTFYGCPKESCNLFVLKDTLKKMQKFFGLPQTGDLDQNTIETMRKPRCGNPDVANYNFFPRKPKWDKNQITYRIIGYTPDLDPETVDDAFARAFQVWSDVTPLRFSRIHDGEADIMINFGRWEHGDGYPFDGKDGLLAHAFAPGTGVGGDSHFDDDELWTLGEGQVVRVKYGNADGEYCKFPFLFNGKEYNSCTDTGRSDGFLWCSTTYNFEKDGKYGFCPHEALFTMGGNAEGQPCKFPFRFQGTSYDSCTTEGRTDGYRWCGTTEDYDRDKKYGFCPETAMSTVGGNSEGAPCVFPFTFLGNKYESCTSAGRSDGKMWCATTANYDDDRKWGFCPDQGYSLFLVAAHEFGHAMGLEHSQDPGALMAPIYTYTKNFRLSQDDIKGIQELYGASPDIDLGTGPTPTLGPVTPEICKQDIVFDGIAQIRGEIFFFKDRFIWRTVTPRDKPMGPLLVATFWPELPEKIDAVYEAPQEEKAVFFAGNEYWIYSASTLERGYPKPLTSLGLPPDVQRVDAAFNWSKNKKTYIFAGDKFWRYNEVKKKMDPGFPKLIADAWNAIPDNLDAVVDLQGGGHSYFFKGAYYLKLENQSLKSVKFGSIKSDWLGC

| IC50 (Interstitial collagenase) | IC50 (Matrilysin) | IC50 [1] | IC50 (Collagenase 3) | IC50 (Stromelysin-1) | SMILES | further results |
| --- | --- | --- | --- | --- | --- | --- |
| 26 nM | 89 nM | < 1 nM | 0.3 nM | 1 nM | CCCCOc1ccc(S(=O)(=O)N2C/C(=N\OC)C[C@@H]2C(=O)NO)cc1 | Absorption (Rattus norvegicus [2]): 36% |
| 119 nM | 307 nM | 0.2 nM | 0.3 nM | 5 nM | CCCCOc1ccc(S(=O)(=O)N2C/C(=N\O)C[C@@H]2C(=O)NO)cc1 | Absorption (Rattus norvegicus [4]): 5% |
| 3 nM | 60 nM | < 0.4 nM | < 0.4 nM | 2 nM | CO/N=C1/C[C@H](C(=O)NO)N(S(=O)(=O)c2ccc(Oc3ccccc3)cc2)C1 | Absorption (Rattus norvegicus [5]): 18% |
| 17 nM |  | 0.2 nM | 0.2 nM | 5 nM | COc1ccc(S(=O)(=O)N2C/C(=N\O)C[C@@H]2C(=O)NO)cc1 | Absorption (Rattus norvegicus [8]): 35% |
| 155 nM | 2550 nM | 2 nM | 1 nM | 16 nM | C=C1C[C@H](C(=O)NO)N(S(=O)(=O)c2ccc(OCCC)cc2)C1 |  |
| 74 nM | 294 nM | 0.5 nM | 0.4 nM | 11 nM | CCCCOc1ccc(S(=O)(=O)N2C/C(=N\OC(C)(C)C)C[C@@H]2C(=O)NO)cc1 | Absorption (Rattus norvegicus [9]): None detected |
| 90 nM | 12300 nM |  | 4 nM |  | C=C1C[C@H](C(=O)NO)N(S(=O)(=O)c2ccc(OC)cc2)C1 | Absorption (Rattus norvegicus [11]): 66% |
| 13 nM | 381 nM | < 0.4 nM | < 1 nM | 2 nM | CCCOc1ccc(S(=O)(=O)N2C/C(=N\OC)C[C@@H]2C(=O)NO)cc1 |  |
| 22 nM | 1060 nM | 0.3 nM | 0.7 nM | 16 nM | CCOc1ccc(S(=O)(=O)N2C/C(=N\OC)C[C@@H]2C(=O)NO)cc1 | Absorption [15]: 42% |
| 10 nM | 82 nM | < 1 nM | < 0.5 nM | 3 nM | CO/N=C1/C[C@H](C(=O)NO)N(S(=O)(=O)c2ccc(OC)cc2)C1 | Absorption (Rattus norvegicus [16]): 81% |
| 109 nM | 612 nM | 0.5 nM | < 0.4 nM | 15 nM | COCCOc1ccc(S(=O)(=O)N2C/C(=N\OC)C[C@@H]2C(=O)NO)cc1 |  |
| 26 nM | 785 nM | < 0.4 nM | < 0.4 nM | 5 nM | CC(C)(C)O/N=C1/C[C@H](C(=O)NO)N(S(=O)(=O)c2ccc(Oc3ccncc3)cc2)C1 |  |
|  | 6720 nM | 11 nM | 8 nM | 222 nM | COCCOc1ccc(S(=O)(=O)N2CC(NOC)C[C@@H]2C(=O)NO)cc1 (some centres undefined) |  |
| 790 nM | 2080 nM | 1 nM | 2 nM | 21 nM | CCCCOc1ccc(S(=O)(=O)N2CC(NOC)C[C@@H]2C(=O)NO)cc1 (some centres undefined) | Absorption (Rattus norvegicus [17]): 17% |
| 1550 nM | > 9990 nM | 9 nM | 11 nM | 69 nM | C=C1C[C@H](C(=O)NO)N(S(=O)(=O)c2ccc(OCCOC)cc2)C1 |  |
| 3 nM | < 24 nM | < 0.4 nM | 0.8 nM | < 1 nM | CO/N=C1/C[C@H](C(=O)NO)N(S(=O)(=O)c2ccc(Oc3ccc(F)cc3)cc2)C1 |  |
| 39 nM | 39 nM | < 0.4 nM | 0.5 nM | 2 nM | CCCCOc1ccc(S(=O)(=O)N2C/C(=N\OCC)C[C@@H]2C(=O)NO)cc1 | Absorption (Rattus norvegicus [18]): 17% |

Second part, the compound before the results:

| SMILES | IC50 (Interstitial collagenase) | IC50 (Matrilysin) | IC50 [1] | IC50 (Collagenase 3) | IC50 (Stromelysin-1) | further results |
| --- | --- | --- | --- | --- | --- | --- |
| O=C(NO)[C@H]1C/C(=N/Oc2ccccc2)CN1S(=O)(=O)c1ccc(Oc2ccncc2)cc1 | 32 nM | 785 nM |  | 0.4 nM | 5 nM | Absorption (Rattus norvegicus [3]): None detected |
| CCCCOc1ccc(S(=O)(=O)N2C/C(=N\N3CCOCC3)C[C@@H]2C(=O)NO)cc1 | 293 nM | 196 nM |  | < 1 nM | 2 nM | Absorption (Rattus norvegicus [6]): 1% |
| CO/N=C1/C[C@H](C(=O)NO)N(S(=O)(=O)c2ccc(Oc3ccncc3)cc2)C1 |  | 922 nM | 0.3 nM | < 0.2 nM | 5 nM | Absorption (Rattus norvegicus [7]): 68% |
| C=C1C[C@H](C(=O)NO)N(S(=O)(=O)c2ccc(OCCCC)cc2)C1 | 329 nM | 1080 nM | 0.8 nM | 0.7 nM | 15 nM |  |
| CONC1C[C@H](C(=O)NO)N(S(=O)(=O)c2ccc(Oc3ccccc3)cc2)C1 (some centres undefined) | 86 nM | 1790 nM | < 0.4 nM | < 0.4 nM | 6 nM |  |
| CCCCOc1ccc(S(=O)(=O)N2C/C(=N\N3CCNCC3)C[C@@H]2C(=O)NO)cc1 | 184 nM | 343 nM |  | < 1 nM | 3 nM | Absorption (Rattus norvegicus [10]): 19% |
| CONC1C[C@H](C(=O)NO)N(S(=O)(=O)c2ccc(OC)cc2)C1 (some centres undefined) | 212 nM | 3390 nM | 5 nM | 3 nM | 19 nM | Absorption (Rattus norvegicus [12]): 15% |
| COc1ccc(S(=O)(=O)N2C/C(=N\OC(C)(C)C)C[C@@H]2C(=O)NO)cc1 | 20 nM | 263 nM | 0.7 nM | < 0.5 nM | 9 nM | Absorption (Rattus norvegicus [13]): 19% |
| CC(C)(C)O/N=C1/C[C@H](C(=O)NO)N(S(=O)(=O)c2ccc(Oc3ccc(F)cc3)cc2)C1 | 24 nM | 1030 nM | < 0.4 nM | 0.2 nM | < 1 nM | Absorption (Rattus norvegicus [14]): Insoluble |
| COc1ccc(S(=O)(=O)N2CC(NOC(C)(C)C)C[C@@H]2C(=O)NO)cc1 (some centres undefined) | 255 nM | 5230 nM | 4 nM | 3 nM | 20 nM |  |
| C=C1C[C@H](C(=O)NO)N(S(=O)(=O)c2ccc(Oc3ccccc3)cc2)C1 | 15 nM | 53 nM | 0.4 nM | < 0.4 nM | 14 nM |  |
| CCCCOc1ccc(S(=O)(=O)N2C/C(=N\OCC(C)C)C[C@@H]2C(=O)NO)cc1 | 75 nM | 420 nM | < 0.4 nM | < 0.1 nM | 12 nM |  |
| CCCCOc1ccc(S(=O)(=O)N2C/C(=N\OCc3ccccc3)C[C@@H]2C(=O)NO)cc1 | 127 nM | 490 nM | < 0.4 nM | 0.1 nM | 17 nM |  |
